# Measured values: patent publication US20260184691A1, “INHIBITORS AND DEGRADERS OF PIP4K PROTEIN” (Larkspur Biosciences, Inc., priority 2022, published 2026)
# Biological target: T1, endogenous PIP4K2C C-terminally tagged with HiBiT peptide in MOLT-4 cells (Homo sapiens, UniProt Q8TBX8)
# T1 construct: to C-terminally tag endogenous PIP4K2C with HiBiT peptide; host or cells: MOLT-4 (CRISPR-Cas9 knock-in clone)
# T1 sequence (Q8TBX8 1-421): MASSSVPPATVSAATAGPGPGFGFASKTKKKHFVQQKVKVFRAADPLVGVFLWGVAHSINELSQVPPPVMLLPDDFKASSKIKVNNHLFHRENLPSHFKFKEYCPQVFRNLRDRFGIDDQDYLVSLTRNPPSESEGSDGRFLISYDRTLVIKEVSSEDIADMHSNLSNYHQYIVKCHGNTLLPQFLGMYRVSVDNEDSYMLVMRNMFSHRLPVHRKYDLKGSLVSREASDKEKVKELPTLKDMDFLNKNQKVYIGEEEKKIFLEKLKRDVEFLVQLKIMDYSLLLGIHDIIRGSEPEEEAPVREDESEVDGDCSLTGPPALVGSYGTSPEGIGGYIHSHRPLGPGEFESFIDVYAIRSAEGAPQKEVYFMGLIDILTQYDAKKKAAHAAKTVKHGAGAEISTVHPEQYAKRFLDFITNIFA
# Experiment: HiBiT PIP4K2C degradation assay in MOLT-4 cells
# Format: cell-based
# Conditions: 24 hours, 10-point dose response, top concentration 10 micromolar, read-out: HiBIT-degradation MOLT4 PIP4k2C 24 hours DC50
# Method in brief: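 Cells bearing C-terminal HiBiT knock-in were exposed to a 10-point, 3-fold dilution series (top 10 micromolar, duplicate) for 24 h at 37C, 5% CO2. Remaining tagged protein read by lytic HiBiT luminescence; DC50 from Hill-equation fit.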
row,DC50,Structure (SMILES)
1,< 500 nM,"O=C1CCC(Nc2ccc(C3CCN(CC(=O)N4CCC5(CC4)CCN(c4cncc(Nc6ncc(Cl)c(-c7cccc(C8CCCC8)c7)n6)c4)C5=O)CC3)cc2)C(=O)N1 (centres unmarked) [Compound 192, 3-((4-(1-(2-(2-(5-((5-chloro-4-(3-cyclopentylphenyl)pyrimidin-2-yl)amino)pyridin-3-yl)-1-oxo-2,8-diazaspiro[4.5]decan-8-yl)-2-oxoethyl)piperidin-4-yl)phenyl)amino)piperidine-2,6-dione]"
2,< 500 nM,"O=C1CCC(N2Cc3cc(OCCCCCCCCCN4CCC5(CC4)CCN(c4cncc(Nc6ncc(Cl)c(-c7cccc(-c8ccccc8)c7)n6)c4)C5=O)ccc3C2=O)C(=O)N1 (centres unmarked) [Compound 53, 3-(5-((9-(2-(5-((4-([1,1′-biphenyl]-3-yl)-5-chloropyrimidin-2-yl)amino)pyridin-3-yl)-1-oxo-2,8-diazaspiro[4.5]decan-8-yl)nonyl)oxy)-1-oxoisoindolin-2-yl)piperidine-2,6-dione]"
3,< 500 nM,"O=C1CCC(N2Cc3cc(OCCCCCCC(=O)N4CCC5(CC4)CCN(c4cncc(Nc6ncc(Cl)c(-c7cccc(-c8ccccc8)c7)n6)c4)C5=O)ccc3C2=O)C(=O)N1 (centres unmarked) [Compound 64, 3-(5-((7-(2-(5-((4-([1,1′-biphenyl]-3-yl)-5-chloropyrimidin-2-yl)amino)pyridin-3-yl)-1-oxo-2,8-diazaspiro[4.5]decan-8-yl)-7-oxoheptyl)oxy)-1-oxoisoindolin-2-yl)piperidine-2,6-dione]"
4,< 500 nM,"O=C1CCC(Nc2ccc(C3CCN(C(=O)CN4CCC(C(=O)Nc5cncc(Nc6ncc(Cl)c(-c7cccc(C8CC8)c7)n6)c5)CC4)CC3)cc2)C(=O)N1 (centres unmarked) [Compound 202, N-(5-((5-chloro-4-(3-cyclopropylphenyl)pyrimidin-2-yl)amino)pyridin-3-yl)-1-(2-(4-(4-((2,6-dioxopiperidin-3-yl)amino)phenyl)piperidin-1-yl)-2-oxoethyl)piperidine-4-carboxamide]"
5,< 500 nM,"Cn1c(=O)n(C2CCC(=O)NC2=O)c2ccc(C3CCN(CC(=O)N4CCC(C(=O)Nc5cncc(Nc6ncc(Cl)c(-c7cccc(C8CC8)c7)n6)c5)CC4)CC3)cc21 (centres unmarked) [Compound 210, N-(5-((5-chloro-4-(3-cyclopropylphenyl)pyrimidin-2-yl)amino)pyridin-3-yl)-1-(2-(4-(1-(2,6-dioxopiperidin-3-yl)-3-methyl-2-oxo-2,3-dihydro-1H-benzo[d]imidazol-5-yl)piperidin-1-yl)acetyl)piperidine-4-carboxamide]"
6,< 500 nM,"O=C1CCC(N2Cc3cc(OCCCCCCCCN4CCC5(CC4)CCN(c4cncc(Nc6ncc(Cl)c(-c7cccc(-c8ccccc8)c7)n6)c4)C5=O)ccc3C2=O)C(=O)N1 (centres unmarked) [Compound 56, 3-(5-((8-(2-(5-((4-([1,1′-biphenyl]-3-yl)-5-chloropyrimidin-2-yl)amino)pyridin-3-yl)-1-oxo-2,8-diazaspiro[4.5]decan-8-yl)octyl)oxy)-1-oxoisoindolin-2-yl)piperidine-2,6-dione]"
7,< 500 nM,"O=C1CCC(Nc2ccc(N3CCC(CCN4CCC5(CC4)CCN(c4cncc(Nc6ncc(Cl)c(N7CCCCC7)n6)c4)C5=O)CC3)cc2)C(=O)N1 (centres unmarked) [Compound 173, 3-((4-(4-(2-(2-(5-((5-chloro-4-(piperidin-1-yl)pyrimidin-2-yl)amino)pyridin-3-yl)-1-oxo-2,8-diazaspiro[4.5]decan-8-yl)ethyl)piperidin-1-yl)phenyl)amino)piperidine-2,6-dione]"
8,1000 to 5000 nM,"O=C1CCC(Nc2ccc(N3CCC(CN4CCC5(CC4)CCN(c4cncc(Nc6ncc(Cl)c(-c7ccc(Cl)cc7)n6)c4)C5=O)CC3)cc2)C(=O)N1 (centres unmarked) [Compound 174, 3-((4-(4-((2-(5-((5-chloro-4-(4-chlorophenyl)pyrimidin-2-yl)amino)pyridin-3-yl)-1-oxo-2,8-diazaspiro[4.5]decan-8-yl)methyl)piperidin-1-yl)phenyl)amino)piperidine-2,6-dione]"
9,< 500 nM,"O=C1CCC(Nc2ccc(C3CCN(CC(=O)N4CCC5(CC4)CCN(c4cncc(Nc6ncc(Cl)c(N7CCC[C@H](O)C7)n6)c4)C5=O)CC3)cc2)C(=O)N1 (stereo partly drawn) [Compound 169, 3-((4-(1-(2-(2-(5-((5-chloro-4-((S)-3-hydroxypiperidin-1-yl)pyrimidin-2-yl)amino)pyridin-3-yl)-1-oxo-2,8-diazaspiro[4.5]decan-8-yl)-2-oxoethyl)piperidin-4-yl)phenyl)amino)piperidine-2,6-dione]"
10,< 500 nM,"O=C1CCC(N2Cc3cc(C4CCN(C(=O)CN5CCC(C(=O)Nc6cncc(Nc7ncc(Cl)c(-c8cccc(C9CC9)c8)n7)c6)CC5)CC4)ccc3C2=O)C(=O)N1 (centres unmarked) [Compound 196, N-(5-((5-chloro-4-(3-cyclopropylphenyl)pyrimidin-2-yl)amino)pyridin-3-yl)-1-(2-(4-(2-(2,6-dioxopiperidin-3-yl)-1-oxoisoindolin-5-yl)piperidin-1-yl)-2-oxoethyl)piperidine-4-carboxamide]"
11,< 500 nM,"Cn1c(=O)n(C2CCC(=O)NC2=O)c2ccc(C3CCN(CC(=O)N4CCC5(CC4)CCN(c4cncc(Nc6ncc(Cl)c(-c7cccc(C8CC8)c7)n6)c4)C5=O)CC3)cc21 (centres unmarked) [Compound 209, 3-(5-(1-(2-(2-(5-((5-chloro-4-(3-cyclopropylphenyl)pyrimidin-2-yl)amino)pyridin-3-yl)-1-oxo-2,8-diazaspiro[4.5]decan-8-yl)-2-oxoethyl)piperidin-4-yl)-3-methyl-2-oxo-2,3-dihydro-1H-benzo[d]imidazol-1-yl)piperidine-2,6-dione]"
12,< 500 nM,"CN1CCC(n2cc(-c3nc(Nc4cncc(N5CCC6(CCN(C(=O)CN7CCC(c8ccc(NC9CCC(=O)NC9=O)cc8)CC7)CC6)C5=O)c4)ncc3Cl)cn2)CC1 (centres unmarked) [Compound 194, 3-((4-(1-(2-(2-(5-((5-chloro-4-(1-(1-methylpiperidin-4-yl)-1H-pyrazol-4-yl)pyrimidin-2-yl)amino)pyridin-3-yl)-1-oxo-2,8-diazaspiro[4.5]decan-8-yl)-2-oxoethyl)piperidin-4-yl)phenyl)amino)piperidine-2,6-dione]"
13,< 500 nM,"O=C1CCC(N2Cc3cc(C4CCN(CC(=O)N5CCC(C(=O)Nc6cncc(Nc7ncc(Cl)c(-c8cccc(C9CC9)c8)n7)c6)CC5)CC4)ccc3C2=O)C(=O)N1 (centres unmarked) [Compound 203, N-(5-((5-chloro-4-(3-cyclopropylphenyl)pyrimidin-2-yl)amino)pyridin-3-yl)-1-(2-(4-(2-(2,6-dioxopiperidin-3-yl)-1-oxoisoindolin-5-yl)piperidin-1-yl)acetyl)piperidine-4-carboxamide]"
14,1000 to 5000 nM,"O=C1CCC(Nc2ccc(N3CCC(N4CCC5(CCN(c6cncc(Nc7ncc(Cl)c(N8CCCCC8)n7)c6)C5=O)CC4)CC3)cc2)C(=O)N1 (centres unmarked) [Compound 91, 3-((4-(4-(2-(5-((5-chloro-4-(piperidin-1-yl)pyrimidin-2-yl)amino)pyridin-3-yl)-1-oxo-2,8-diazaspiro[4.5]decan-8-yl)piperidin-1-yl)phenyl)amino)piperidine-2,6-dione]"
15,< 500 nM,"O=C1CCC(N2C(=O)c3ccc(OCCCCCCC(=O)N4CCC5(CC4)CCN(c4cncc(Nc6ncc(Cl)c(-c7cccc(-c8ccccc8)c7)n6)c4)C5=O)cc3C2=O)C(=O)N1 (centres unmarked) [Compound 74, 5-((7-(2-(5-((4-([1,1′-biphenyl]-3-yl)-5-chloropyrimidin-2-yl)amino)pyridin-3-yl)-1-oxo-2,8-diazaspiro[4.5]decan-8-yl)-7-oxoheptyl)oxy)-2-(2,6-dioxopiperidin-3-yl)isoindoline-1,3-dione]"
16,< 500 nM,"O=C1CCC(N2Cc3cc(OCCCCCCCC(=O)N4CCC5(CC4)CCN(c4cncc(Nc6ncc(Cl)c(-c7cccc(-c8ccccc8)c7)n6)c4)C5=O)ccc3C2=O)C(=O)N1 (centres unmarked) [Compound 63, 3-(5-((8-(2-(5-((4-([1,1′-biphenyl]-3-yl)-5-chloropyrimidin-2-yl)amino)pyridin-3-yl)-1-oxo-2,8-diazaspiro[4.5]decan-8-yl)-8-oxooctyl)oxy)-1-oxoisoindolin-2-yl)piperidine-2,6-dione]"
17,< 500 nM,"O=C1CCC(N2C(=O)c3cccc(OCCCCCCCC(=O)N4CCC5(CC4)CCN(c4cncc(Nc6ncc(Cl)c(-c7cccc(-c8ccccc8)c7)n6)c4)C5=O)c3C2=O)C(=O)N1 (centres unmarked) [Compound 79, 4-((8-(2-(5-((4-([1,1′-biphenyl]-3-yl)-5-chloropyrimidin-2-yl)amino)pyridin-3-yl)-1-oxo-2,8-diazaspiro[4.5]decan-8-yl)-8-oxooctyl)oxy)-2-(2,6-dioxopiperidin-3-yl)isoindoline-1,3-dione]"
